Results taken from ChEMBL document CHEMBL1147014, “Synthesis and biological evaluation of a novel structural type of serotonin 5-HT3 receptor antagonists” (Bioorg Med Chem Lett, 2006).

Molecular target: T1, 5-hydroxytryptamine receptor 3A (Cavia porcellus, UniProt O70212)
T1 sequence (O70212 whole entry): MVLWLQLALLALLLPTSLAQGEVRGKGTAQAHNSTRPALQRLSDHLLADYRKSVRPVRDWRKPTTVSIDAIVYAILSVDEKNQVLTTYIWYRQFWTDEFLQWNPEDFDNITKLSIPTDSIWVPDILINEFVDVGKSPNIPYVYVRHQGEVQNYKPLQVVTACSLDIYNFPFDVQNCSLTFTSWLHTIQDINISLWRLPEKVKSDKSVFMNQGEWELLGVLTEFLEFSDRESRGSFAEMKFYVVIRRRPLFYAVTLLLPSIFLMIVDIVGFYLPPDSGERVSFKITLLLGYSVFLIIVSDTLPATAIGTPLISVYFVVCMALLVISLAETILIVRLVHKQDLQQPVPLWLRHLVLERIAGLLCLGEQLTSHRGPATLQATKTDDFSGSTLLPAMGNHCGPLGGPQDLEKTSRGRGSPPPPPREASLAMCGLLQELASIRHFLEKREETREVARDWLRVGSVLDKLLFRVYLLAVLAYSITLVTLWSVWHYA
Assay: Antagonist effect against 2-methyl-5-HT activity at 5-HT3 receptor in longitudinal muscle myenteric plexus from guinea pig ileum
Type: functional, tissue-based
Details: read-out: pA2 (converted)

First: CCN1CCN(Cc2cc(NC(=O)c3nc4ccccc4nc3OC)ccc2O)CC1
Second: CCOc1nc2ccccc2nc1C(=O)Nc1ccc(O)c(CN2CCN(CC)CC2)c1
The Kb of the first is 10-fold lower: 12.6 µM for the first, 126 µM for the second.

Compared with `COc1nc2ccccc2nc1C(=O)Nc1ccc(O)c(CN2CCOCC2)c1`, `CCOc1nc2ccccc2nc1C(=O)Nc1ccc(O)c(CN2CCOCC2)c1` is higher in Kb: 1000 µM for the first, > 1000 µM for the second.

Compared with `CCOc1nc2ccccc2nc1C(=O)Nc1cc(CN2CCN(C)CC2)c(O)c(N2CCN(C)CC2)c1`, `COc1nc2ccccc2nc1C(=O)Nc1cc(CN2CCN(C)CC2)c(O)c(N2CCN(C)CC2)c1` is lower in Kb: > 1000 µM for the first, 15.8 µM for the second.

Compared with `CCOc1nc2ccccc2nc1C(=O)Nc1cc(CN2CCN(CC)CC2)c(O)c(N2CCN(CC)CC2)c1`, `CCN1CCN(Cc2cc(NC(=O)c3nc4ccccc4nc3OC)cc(N3CCN(CC)CC3)c2O)CC1` is lower in Kb: > 1000 µM for the first, 79.4 µM for the second.

`COc1nc2ccccc2nc1C(=O)Nc1cc(CN2CCOCC2)c(O)c(N2CCOCC2)c1` and `CCOc1nc2ccccc2nc1C(=O)Nc1cc(CN2CCOCC2)c(O)c(N2CCOCC2)c1` cannot be ordered by Kb: > 1000 µM for the first, > 1000 µM for the second.

Going from `CCOc1nc2ccccc2nc1C(=O)Nc1ccc(O)c(CN2CCCCC2)c1` to `CCOc1nc2ccccc2nc1C(=O)Nc1ccc(O)c(CN2CCCC2)c1`, the Kb falls from 794 µM to 316 µM (2.5-fold).

Going from `CCOc1nc2ccccc2nc1C(=O)Nc1ccc(O)c(CN2CCN(C)CC2)c1` to `COc1nc2ccccc2nc1C(=O)Nc1ccc(O)c(CN2CCN(C)CC2)c1`, the Kb falls from 25.1 µM to 2 µM (13-fold).

Going from `COc1nc2ccccc2nc1C(=O)Nc1ccc(O)c(CN2CCNCC2)c1` to `CCOc1nc2ccccc2nc1C(=O)Nc1ccc(O)c(CN2CCNCC2)c1`, the Kb rises from 31.6 µM to 398 µM (13-fold).

Compared with `COc1nc2ccccc2nc1C(=O)Nc1ccc(O)c(CN2CCCCC2)c1`, `COc1nc2ccccc2nc1C(=O)Nc1ccc(O)c(CN2CCCC2)c1` is 2.5-fold lower in Kb: 316 µM for the first, 126 µM for the second.

`COc1nc2ccccc2nc1C(=O)Nc1cc(CN2CCCC2)c(O)c(N2CCCC2)c1` and `CCOc1nc2ccccc2nc1C(=O)Nc1cc(CN2CCCC2)c(O)c(N2CCCC2)c1` cannot be ordered by Kb: > 1000 µM for the first, > 1000 µM for the second.

Going from `CCOc1nc2ccccc2nc1C(=O)Nc1cc(CN2CCNCC2)c(O)c(N2CCNCC2)c1` to `COc1nc2ccccc2nc1C(=O)Nc1cc(CN2CCNCC2)c(O)c(N2CCNCC2)c1`, the Kb falls from > 1000 µM to 100 µM.
